In ChEMBL document CHEMBL4308841, “Synthesis, in vitro antiproliferative activity, and kinase inhibitory effects of pyrazole-containing diarylureas and diarylamides” (Eur J Med Chem, 2018):

Experiments:
[1] = system: OVCAR-8; assay: Growth inhibition of human OVCAR8 cells assessed as cell growth at 1 uM incubated for 48 hrs by sulforhodamine B assay relative to control; type: functional; conditions: OVCAR-8, 48 h, read-out: Activity
[2] = system: T47D; assay: Growth inhibition of human T47D cells assessed as cell growth at 1 uM incubated for 48 hrs by sulforhodamine B assay relative to control; type: functional; conditions: read-out: Activity
[3] = system: SK-MEL-2; assay: Growth inhibition of human SK-MEL-2 cells assessed as cell growth at 0.01 uM incubated for 48 hrs by sulforhodamine B assay relative to control; type: functional; conditions: SK-MEL-2, 48 h, read-out: Activity
[4] = system: SR; assay: Growth inhibition of human SR cells assessed as cell growth at 100 uM incubated for 48 hrs by sulforhodamine B assay relative to control; type: functional; conditions: read-out: Activity
[5] = system: MCF7; assay: Growth inhibition of human MCF7 cells assessed as cell growth at 0.01 uM incubated for 48 hrs by sulforhodamine B assay relative to control; type: functional; conditions: MCF7, 48 h, read-out: Activity
[6] = system: T47D; assay: Growth inhibition of human T47D cells assessed as cell growth at 100 uM incubated for 48 hrs by sulforhodamine B assay relative to control; type: functional; conditions: read-out: Activity
[7] = system: SNB-19; assay: Growth inhibition of human SNB19 cells assessed as cell growth at 0.1 uM incubated for 48 hrs by sulforhodamine B assay relative to control; type: functional; conditions: SNB-19, 48 h, read-out: Activity
[8] = system: SF-295; assay: Growth inhibition of human SF295 cells assessed as cell growth at 100 uM incubated for 48 hrs by sulforhodamine B assay relative to control; type: functional; conditions: SF-295, 48 h, read-out: Activity
[9] = system: OVCAR-4; assay: Growth inhibition of human OVCAR4 cells assessed as cell growth at 1 uM incubated for 48 hrs by sulforhodamine B assay relative to control; type: functional; conditions: OVCAR-4, 48 h, read-out: Activity
[10] = system: COLO 205; assay: Growth inhibition of human COLO205 cells assessed as cell growth at 1 uM incubated for 48 hrs by sulforhodamine B assay relative to control; type: functional; conditions: COLO 205, 48 h, read-out: Activity
[11] = system: HCT-116; assay: Growth inhibition of human HCT116 cells incubated for 48 hrs by sulforhodamine B assay; type: functional, cell-based; conditions: HCT-116, 48 h
[12] = system: SNB-75; assay: Growth inhibition of human SNB75 cells assessed as cell growth at 100 uM incubated for 48 hrs by sulforhodamine B assay relative to control; type: functional; conditions: SNB-75, 48 h, read-out: Activity
[13] = system: OVCAR-8; assay: Growth inhibition of human OVCAR8 cells assessed as cell growth at 100 uM incubated for 48 hrs by sulforhodamine B assay relative to control; type: functional; conditions: OVCAR-8, 48 h, read-out: Activity
[14] = system: NCI-H460; assay: Growth inhibition of human NCI-H460 cells assessed as cell growth at 1 uM incubated for 48 hrs by sulforhodamine B assay relative to control; type: functional; conditions: NCI-H460, 48 h, read-out: Activity
[15] = system: NCI-H522; assay: Growth inhibition of human NCI-H522 cells assessed as cell growth at 10 uM incubated for 48 hrs by sulforhodamine B assay relative to control; type: functional; conditions: NCI-H522, 48 h, read-out: Activity
[16] = system: NCI-H226; assay: Growth inhibition of human NCI-H226 cells assessed as cell growth at 0.1 uM incubated for 48 hrs by sulforhodamine B assay relative to control; type: functional; conditions: NCI-H226, 48 h, read-out: Activity
[17] = system: OVCAR-5; assay: Growth inhibition of human OVCAR5 cells assessed as cell growth at 0.1 uM incubated for 48 hrs by sulforhodamine B assay relative to control; type: functional; conditions: OVCAR-5, 48 h, read-out: Activity
[18] = system: SK-OV-3; assay: Growth inhibition of human SKOV3 cells assessed as cell growth at 1 uM incubated for 48 hrs by sulforhodamine B assay relative to control; type: functional; conditions: SK-OV-3, 48 h, read-out: Activity
[19] = system: SN12C; assay: Growth inhibition of human SN12C cells incubated for 48 hrs by sulforhodamine B assay; type: functional, cell-based
[20] = system: NCI-H23; assay: Growth inhibition of human NCI-H23 cells assessed as cell growth at 100 uM incubated for 48 hrs by sulforhodamine B assay relative to control; type: functional; conditions: NCI-H23, 48 h, read-out: Activity
[21] = system: NCI-H522; assay: Growth inhibition of human NCI-H522 cells assessed as cell growth at 0.01 uM incubated for 48 hrs by sulforhodamine B assay relative to control; type: functional; conditions: NCI-H522, 48 h, read-out: Activity
[22] = system: OVCAR-3; assay: Growth inhibition of human OVCAR3 cells assessed as cell growth at 1 uM incubated for 48 hrs by sulforhodamine B assay relative to control; type: functional; conditions: OVCAR-3, 48 h, read-out: Activity
[23] = system: COLO 205; assay: Growth inhibition of human COLO205 cells assessed as cell growth at 100 uM incubated for 48 hrs by sulforhodamine B assay relative to control; type: functional; conditions: COLO 205, 48 h, read-out: Activity
[24] = system: M14; assay: Growth inhibition of human M14 cells assessed as cell growth at 0.01 uM incubated for 48 hrs by sulforhodamine B assay relative to control; type: functional; conditions: M14, 48 h, read-out: Activity
[25] = system: SK-MEL-5; assay: Growth inhibition of human SK-MEL-5 cells assessed as cell growth at 1 uM incubated for 48 hrs by sulforhodamine B assay relative to control; type: functional; conditions: SK-MEL-5, 48 h, read-out: Activity
[26] = system: HL-60(TB); assay: Growth inhibition of human HL-60(TB) cells assessed as cell growth at 100 uM incubated for 48 hrs by sulforhodamine B assay relative to control; type: functional; conditions: HL-60, 48 h, read-out: Activity
[27] = system: K562; assay: Growth inhibition of human K562 cells assessed as cell growth at 0.1 uM incubated for 48 hrs by sulforhodamine B assay relative to control; type: functional; conditions: K562, 48 h, read-out: Activity
[28] = system: OVCAR-4; assay: Growth inhibition of human OVCAR4 cells incubated for 48 hrs by sulforhodamine B assay; type: functional, cell-based; conditions: OVCAR-4, 48 h
[29] = system: HT-29; assay: Growth inhibition of human HT-29 cells assessed as cell growth at 1 uM incubated for 48 hrs by sulforhodamine B assay relative to control; type: functional; conditions: HT-29, 48 h, read-out: Activity
[30] = system: OVCAR-8; assay: Growth inhibition of human OVCAR8 cells assessed as cell growth at 0.1 uM incubated for 48 hrs by sulforhodamine B assay relative to control; type: functional; conditions: OVCAR-8, 48 h, read-out: Activity
[31] = system: KM12; assay: Growth inhibition of human KM12 cells assessed as cell growth at 100 uM incubated for 48 hrs by sulforhodamine B assay relative to control; type: functional; conditions: KM12, 48 h, read-out: Activity
[32] = system: HOP-62; assay: Growth inhibition of human HOP62 cells assessed as cell growth at 0.01 uM incubated for 48 hrs by sulforhodamine B assay relative to control; type: functional; conditions: HOP-62, 48 h, read-out: Activity
[33] = read-out: LC50 (the source's name)
[34] = read-out: pLC50 (the source's name) (converted)

## COc1cc(Cl)cc(-c2nn(-c3cccc(NC(=O)Nc4ccc(Cl)c(Cl)c4)c3)cc2-c2ccncc2)c1
[1]
  growth at 1 µM: 78%
[2]
  growth at 1 µM: 87%
[3]
  growth at 0.01 µM: 96%
[4]
  growth at 100 µM: -26%
[5]
  growth at 0.01 µM: 94%
[6]
  growth at 100 µM: -9%
[7]
  growth at 0.1 µM: 90%
[8]
  growth at 100 µM: -21%
[9]
  growth at 1 µM: 83%
[10]
  growth at 1 µM: 91%
[11]
  IC50: 2.02 µM
[11]; read-out: GI50
  GI50: 2.02 µM
[11]; [33]
  CC50: > 100 µM
[11]; read-out: TGI
  TGI: > 100 µM
[11]; read-out: pGI50 (converted)
  GI50: 2.04 µM
[11]; [34]
  CC50: > 100 µM
[11]; read-out: pTGI (converted)
  TGI: > 100 µM
[12]
  growth at 100 µM: -3%
[13]
  growth at 100 µM: -9%
[14]
  growth at 1 µM: 77%
[15]
  growth at 10 µM: -19%
[16]
  growth at 0.1 µM: 96%
[17]
  growth at 0.1 µM: 59%
[18]
  growth at 1 µM: 100%
[19]; read-out: GI50
  GI50: 3.1 µM
[19]; read-out: LC50
  LC50: > 100 µM
[19]; read-out: TGI
  TGI: > 100 µM
[19]; read-out: pGI50 (converted)
  GI50: 3.09 µM
[19]; read-out: pLC50 (converted)
  LC50: > 100 µM
[19]; read-out: pTGI (converted)
  TGI: > 100 µM
[20]
  growth at 100 µM: -20%
[21]
  growth at 0.01 µM: 95%
[22]
  growth at 1 µM: 61%
[23]
  growth at 100 µM: -100%
[24]
  growth at 0.01 µM: 97%
[25]
  growth at 1 µM: 88%
[26]
  growth at 100 µM: -30%
[27]
  growth at 0.1 µM: 58%
[28]; read-out: GI50
  GI50: 2 µM
[28]; [33]
  CC50: > 100 µM
[28]; read-out: TGI
  TGI: 53.8 µM
[28]; read-out: pGI50 (converted)
  GI50: 2.82 µM
[28]; [34]
  CC50: > 100 µM
[28]; read-out: pTGI (converted)
  TGI: 53.7 µM
[29]
  growth at 1 µM: 62%
[30]
  growth at 0.1 µM: 101%
[31]
  growth at 100 µM: -17%
[32]
  growth at 0.01 µM: 92%

## COc1cc(Cl)cc(-c2nn(-c3cccc(NC(=O)Nc4cccc(C(F)(F)F)c4)c3)cc2-c2ccncc2)c1
[1]
  growth at 1 µM: 54%
[2]
  growth at 1 µM: 58%
[3]
  growth at 0.01 µM: 95%
[4]
  growth at 100 µM: -30%
[5]
  growth at 0.01 µM: 91%
[6]
  growth at 100 µM: -25%
[7]
  growth at 0.1 µM: 96%
[8]
  growth at 100 µM: -53%
[9]
  growth at 1 µM: 71%
[10]
  growth at 1 µM: 79%
[11]
  IC50: 0.75 µM
[11]; read-out: GI50
  GI50: 0.754 µM
[11]; [33]
  CC50: 35.7 µM
[11]; read-out: TGI
  TGI: 75.1 µM
[11]; read-out: pGI50 (converted)
  GI50: 0.759 µM
[11]; [34]
  CC50: 38.9 µM
[11]; read-out: pTGI (converted)
  TGI: 7.59 µM
[12]
  growth at 100 µM: -17%
[13]
  growth at 100 µM: -43%
[14]
  growth at 1 µM: 45%
[15]
  growth at 10 µM: -18.6%
[16]
  growth at 0.1 µM: 95%
[17]
  growth at 0.1 µM: 54%
[18]
  growth at 1 µM: 103%
[19]; read-out: GI50
  GI50: 2.06 µM
[19]; read-out: LC50
  LC50: > 100 µM
[19]; read-out: TGI
  TGI: 15.5 µM
[19]; read-out: pGI50 (converted)
  GI50: 2.04 µM
[19]; read-out: pLC50 (converted)
  LC50: > 100 µM
[19]; read-out: pTGI (converted)
  TGI: 18.6 µM
[20]
  growth at 100 µM: -40%
[21]
  growth at 0.01 µM: 95%
[22]
  growth at 1 µM: 38%
[23]
  growth at 100 µM: -95%
[24]
  growth at 0.01 µM: 98%
[25]
  growth at 1 µM: 80%
[26]
  growth at 100 µM: -28%
[27]
  growth at 0.1 µM: 94%
[28]; read-out: GI50
  GI50: 2.54 µM
[28]; [33]
  CC50: > 100 µM
[28]; read-out: TGI
  TGI: 38.8 µM
[28]; read-out: pGI50 (converted)
  GI50: 2.51 µM
[28]; [34]
  CC50: > 100 µM
[28]; read-out: pTGI (converted)
  TGI: 38.9 µM
[29]
  growth at 1 µM: 65%
[30]
  growth at 0.1 µM: 99%
[31]
  growth at 100 µM: -48%
[32]
  growth at 0.01 µM: 96%
